What was measured:
Experiment in all cases: CYP inhibition test, pooled human liver microsomes
Format in all cases: in vitro ADME
[1] = molecular target: CYP3A4 (Homo sapiens, UniProt P08684); parameters: from tissue; host or cells: pooled human liver microsomes; settings: hydroxylation of terfenadine
Source text: Using commercially available pooled human liver microsomes and employing typical substrate metabolic reactions of 5 major species of human CYP enzymes (CYP1A2, 2C9, 2C19, 2D6, 3A4), namely, O-deethylation of 7-ethoxyresorufin (CYP1A2), methyl-hydroxylation of tolbutamide (CYP2C9), 4′-hydroxylation of mephenyloin (CYP2C19), O-demethylation of dextromethorphan (CYP2D6), and hydroxylation of terfenadine (CYP3A4), as indicator reactions, the degree of inhibition of each metabolite production by each test compound is evaluated. […] Centrifugation is performed for 15 minutes at 3000 rpm, and each metabolite in the centrifuged supernatant is quantified. Namely, resorufin (CYP1A2 metabolite) is quantified with a fluorescence multilabel counter, and hydroxylated tolbutamide (CYP2C9 metabolite), 4′-hydroxylated mephenyloin (CYP2C19 metabolite), dextrorphan (CYP2D6 metabolite) and alcoholized terfenadine (CYP3A4 metabolite) are quantified with LC/MS/MS. […] The remaining activity (%) at each concentration after adding the test compound solution is calculated, and the […] is calculated from the concentration and inhibition percentage by inverse estimation with the logistic model.

[2] = molecular target: T1, CYP2D6 (Homo sapiens, UniProt P10635); settings: O-demethylation of dextromethorphan
T1 construct: from tissue; host or cells: pooled human liver microsomes
T1 sequence (P10635 whole entry): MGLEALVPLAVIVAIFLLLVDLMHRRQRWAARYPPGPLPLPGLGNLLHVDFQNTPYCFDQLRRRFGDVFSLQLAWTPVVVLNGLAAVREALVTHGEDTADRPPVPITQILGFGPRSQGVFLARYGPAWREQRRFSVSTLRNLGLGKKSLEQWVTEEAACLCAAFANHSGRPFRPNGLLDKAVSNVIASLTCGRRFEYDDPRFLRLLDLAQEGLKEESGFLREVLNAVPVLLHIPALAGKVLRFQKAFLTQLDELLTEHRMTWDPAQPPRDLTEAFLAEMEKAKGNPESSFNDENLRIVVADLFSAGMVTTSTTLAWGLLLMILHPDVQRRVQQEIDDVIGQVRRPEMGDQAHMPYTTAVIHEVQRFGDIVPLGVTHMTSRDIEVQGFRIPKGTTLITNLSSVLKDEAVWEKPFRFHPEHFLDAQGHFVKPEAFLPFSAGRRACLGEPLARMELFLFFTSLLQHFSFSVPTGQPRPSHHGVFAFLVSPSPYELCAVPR
Source text: (§1) Using commercially available pooled human liver microsomes and employing typical substrate metabolic reactions of 5 major species of human CYP enzymes (CYP1A2, 2C9, 2C19, 2D6, 3A4), namely, O-deethylation of 7-ethoxyresorufin (CYP1A2), methyl-hydroxylation of tolbutamide (CYP2C9), 4′-hydroxylation of mephenyloin (CYP2C19), O-demethylation of dextromethorphan (CYP2D6), and hydroxylation of terfenadine (CYP3A4), as indicator reactions, the degree of inhibition of each metabolite production by each test compound is evaluated. The reaction conditions are as follows: Substrate: 0.5 μmol/L of ethoxyresorufin (CYP1A2), 100 μmol/L of tolbutamide (CYP2C9), 50 μmol/L of S-mephenyloin (CYP2C19), 5 μmol/L of dextromethorphan (CYP2D6), 1 μmol/L of terfenadine (CYP3A4); Reaction time period: 15 minutes; Reaction temperature: 37° C.; Enzyme: pooled human liver microsomes 0.2 mg protein/mL; Test compound concentration: 1, 5, 10 and 20 μmol/L (four different concentrations). As a reaction solution, the respective five substrates, human liver microsomes, and test compound in the aforementioned amounts are added to a 50 mM Hepes buffer in a 96-well plate. NADPH, which is a coenzyme, is added thereto to start the indicator metabolic reaction. The reaction proceeds for 15 minutes at 37° C., and the solution of methanol/acetonitrile=1/1 (v/v) is added so as to terminate the reaction. Centrifugation is performed for 15 minutes at 3000 rpm, and each metabolite in the centrifuged supernatant is quantified. Namely, resorufin (CYP1A2 metabolite) is quantified with a fluorescence multilabel counter, and hydroxylated tolbutamide (CYP2C9 metabolite), 4′-hydroxylated mephenyloin (CYP2C19 metabolite), dextrorphan (CYP2D6 metabolite) and alcoholized terfenadine (CYP3A4 metabolite) are quantified with LC/MS/MS. Control (100%) is prepared by adding only DMSO, a solvent to dissolve the test compound, to the reaction system. The remaining activity (%) at each concentration after adding the test compound solution is calculated, and the […] is calculated from the concentration and inhibition percentage by inverse estimation with the logistic model.

[3] = molecular target: T2, CYP1A2 (Homo sapiens, UniProt P05177); settings: O-deethylation of 7-ethoxyresorufin
T2 construct: from tissue; host or cells: pooled human liver microsomes
T2 sequence (P05177 1-516): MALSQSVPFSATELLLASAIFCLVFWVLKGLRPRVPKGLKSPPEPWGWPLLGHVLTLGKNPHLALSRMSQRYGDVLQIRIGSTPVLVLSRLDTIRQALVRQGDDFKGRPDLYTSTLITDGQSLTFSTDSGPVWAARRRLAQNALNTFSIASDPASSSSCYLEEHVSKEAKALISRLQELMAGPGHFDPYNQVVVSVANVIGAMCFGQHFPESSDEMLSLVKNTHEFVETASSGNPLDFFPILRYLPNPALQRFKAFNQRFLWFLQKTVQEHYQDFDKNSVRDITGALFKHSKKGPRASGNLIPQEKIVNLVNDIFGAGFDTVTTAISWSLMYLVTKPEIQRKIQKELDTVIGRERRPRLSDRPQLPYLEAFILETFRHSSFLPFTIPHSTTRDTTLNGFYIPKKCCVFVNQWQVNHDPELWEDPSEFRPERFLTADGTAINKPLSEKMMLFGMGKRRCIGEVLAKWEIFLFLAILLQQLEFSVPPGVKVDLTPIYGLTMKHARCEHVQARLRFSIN
Source text: as §1

[4] = molecular target: T3, CYP2C19 (Homo sapiens, UniProt P33261); settings: 4′-hydroxylation of mephenyloin
T3 construct: from tissue; host or cells: pooled human liver microsomes
T3 sequence (P33261 whole entry): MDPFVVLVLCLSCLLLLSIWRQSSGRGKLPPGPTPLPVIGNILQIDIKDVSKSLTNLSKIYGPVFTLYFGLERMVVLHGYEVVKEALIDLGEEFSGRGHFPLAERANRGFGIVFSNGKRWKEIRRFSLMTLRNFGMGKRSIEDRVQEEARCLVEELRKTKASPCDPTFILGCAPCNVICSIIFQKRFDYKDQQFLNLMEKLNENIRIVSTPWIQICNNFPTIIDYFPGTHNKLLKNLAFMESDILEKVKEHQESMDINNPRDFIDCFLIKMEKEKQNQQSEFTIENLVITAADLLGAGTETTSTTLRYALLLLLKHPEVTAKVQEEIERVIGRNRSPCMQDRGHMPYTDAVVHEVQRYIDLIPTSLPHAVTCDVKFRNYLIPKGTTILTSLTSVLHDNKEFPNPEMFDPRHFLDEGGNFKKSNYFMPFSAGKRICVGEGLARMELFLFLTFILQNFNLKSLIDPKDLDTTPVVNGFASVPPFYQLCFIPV
Source text: as §1

[5] = molecular target: T4, CYP2C9 (Homo sapiens, UniProt P11712); settings: methyl-hydroxylation of tolbutamide
T4 construct: from tissue; host or cells: pooled human liver microsomes
T4 sequence (P11712 whole entry): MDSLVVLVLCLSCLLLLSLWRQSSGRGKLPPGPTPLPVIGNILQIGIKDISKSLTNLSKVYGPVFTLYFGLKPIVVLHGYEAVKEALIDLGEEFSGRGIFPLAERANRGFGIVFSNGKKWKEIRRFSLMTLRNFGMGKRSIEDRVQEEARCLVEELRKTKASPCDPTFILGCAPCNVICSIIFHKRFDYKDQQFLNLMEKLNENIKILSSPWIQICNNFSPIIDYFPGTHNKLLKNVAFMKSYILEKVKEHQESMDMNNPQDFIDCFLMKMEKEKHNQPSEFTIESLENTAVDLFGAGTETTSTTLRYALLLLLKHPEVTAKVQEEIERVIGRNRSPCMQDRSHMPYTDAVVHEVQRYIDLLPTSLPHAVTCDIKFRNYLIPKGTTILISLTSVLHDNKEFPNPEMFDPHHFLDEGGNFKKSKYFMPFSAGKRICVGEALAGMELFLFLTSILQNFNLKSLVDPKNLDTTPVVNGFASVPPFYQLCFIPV
Source text: as §1

Measured: IC50

Sequence of CYP3A4 (P08684 whole entry): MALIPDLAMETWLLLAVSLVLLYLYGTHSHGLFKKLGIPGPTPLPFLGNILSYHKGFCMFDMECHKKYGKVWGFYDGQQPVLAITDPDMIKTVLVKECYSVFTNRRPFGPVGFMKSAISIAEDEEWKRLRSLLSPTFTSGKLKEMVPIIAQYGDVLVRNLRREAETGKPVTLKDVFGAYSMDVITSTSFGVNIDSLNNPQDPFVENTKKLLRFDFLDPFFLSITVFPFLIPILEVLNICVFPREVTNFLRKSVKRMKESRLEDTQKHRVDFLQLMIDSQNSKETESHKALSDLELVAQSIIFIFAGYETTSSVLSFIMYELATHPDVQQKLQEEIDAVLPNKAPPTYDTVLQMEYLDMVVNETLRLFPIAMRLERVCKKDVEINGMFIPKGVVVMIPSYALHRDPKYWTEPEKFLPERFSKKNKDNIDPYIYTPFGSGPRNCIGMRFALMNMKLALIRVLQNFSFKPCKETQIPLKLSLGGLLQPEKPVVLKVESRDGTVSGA

COc1cc(NS(=O)(=O)c2ccccc2CO)ccc1-n1cnc(C)c1 [Compound 121]
> 10 µM: all assays above

From US20120135997A1, “PHARMACEUTICAL COMPOSITION COMPRISING A LACTAM OR BENZENESULFONAMIDE COMPOUND” (Shionogi & Co., Ltd., priority 2009, published 2012)
